Like-named read-outs stand apart in the source and are kept apart here.
Experiments:
[1] = biological target: T1, Recombinant human P450 27A1 (Homo sapiens, UniProt Q02318); test: P450 27A1 enzyme incubation: disappearance of substrate, coprostanol internal standard; assay type: biochemical
T1 construct: made in house; host or cells: E. coli
Description: (§1) Recombinant human P450 27A1, recombinant bovine adrenodoxin (Adx), and recombinant bovine adrenodoxin reductase (Adr) were expressed and purified as described previously (7). P450 27A1 with a heme content of 17.6 nmol/mg protein and showing a single band upon silver-stained SDS-polyacrylamide gel electrophoresis, and Adr and Adx with the spectral purity indexes of 7.5 (A278/A450) and 0.95 (A414/A276), respectively, were used for enzymatic assays. Adr and Adx are considered to be pure with the spectral purity indexes beginning from 7.5 for Adr and 0.86 for Adx (8).
(§2) P450 27A1 activities using cholesterol, desmosterol, zymosterol, lanosterol, or […] as the substrate were assayed in 40 mM phosphate buffer, pH 7.4. Stock solutions (10 mM) of cholesterol, desmosterol, zymosterol, and […] were prepared using 45% aqueous solution of 2-hydroxypropyl-β-cyclodextrin. Reaction mixtures (1 ml) contained 0.065 nmol of P450 27A1, 0.33 nmol of Adr, 1.3 nmol of Adx, and 25 nmol of substrate, Lanosterol was dissolved in methyl-β-cyclodextrin (Sigma, St. Louis, Mo.) and the reaction mixture contained 25 nmol substrate, 0.3 nmol enzyme, 1.5 nmol Adr and 6.5 nmol Adx. Enzymatic assays, initiated by addition of 1 μmol of NADPH, were carried out at 37° C. for different time intervals, and were terminated by adding 1 ml of either CH2Cl2 or CH2Cl2 that contained coprostanol. After extraction, the steroid were taken to dryness. In some studies deuterated 27-hydroxycholesterol (9) was used as an internal standard.
(§3) For zymosterol and desmosterol, the rate of diol formation was determined at 2.5, 5.0, and 10 min by removing aliquots and adding deuterated 27-hydroxycholesterol as an internal standard. The m/z 454 area was then compared with the m/z=462 area at each time interval. Because authentic standards are not available for constructing standard curves, it was assumed that the area/mass ratios for deuterated 27-hydroxycholesterol, zymosterol and desmosterol were equal. A second approach was to quantify the rate of disappearance of substrate using coprostanol added at the end of the incubation period. In all studies a parallel incubation with the omission of adrenodoxin reductase served as a control.
(§4) The trimethylsilyl ethers were prepared using MSTFA, (Pierce, Rockford, Ill.). Methyl esters were prepared using freshly distilled diazomethane. GLC-MS analyses were done on a Shimidzu GLC 17A instrument attached to a Model 5000 mass detector. Samples were injected in the split-mode onto a ZB-1701, 30 m×0.25 mm×0.15 μm capillary column (Phenomenex, Torrance, Calif.) and temperature programming at 1° C. beginning at 240° C.
TABLE 3 indicates the percent of zymosterol, desmosterol, and lanosterol that was metabolized compared with that of cholesterol and 7-dehydrocholesterol using coprostanol (m/z=370) as an internal standard and (−) adrenodoxin reductase as a control.

[2] = biological target: T1, Recombinant human P450 27A1; test: P450 27A1 enzyme incubation: rate of 27-diol formation (GLC-MS); assay type: biochemical; details: for Synthesis rate of the 27-diol metabolite: 25 nmol substrate, 37° C.; for Total 27-diol metabolite: total over 10 min; for Substrate for the enzyme CYP 27A1: human enzyme expressed in E. Coli
Description: as §1, §2, §3, §4

HMG CoA reductase = biological target: T2, HMG CoA reductase (Homo sapiens, UniProt P04035); test: Ubiquitination of reductase in a permeabilized cell system; assay type: cell-based; details: permeabilized cells; data not shown
T2 sequence (P04035 1-888): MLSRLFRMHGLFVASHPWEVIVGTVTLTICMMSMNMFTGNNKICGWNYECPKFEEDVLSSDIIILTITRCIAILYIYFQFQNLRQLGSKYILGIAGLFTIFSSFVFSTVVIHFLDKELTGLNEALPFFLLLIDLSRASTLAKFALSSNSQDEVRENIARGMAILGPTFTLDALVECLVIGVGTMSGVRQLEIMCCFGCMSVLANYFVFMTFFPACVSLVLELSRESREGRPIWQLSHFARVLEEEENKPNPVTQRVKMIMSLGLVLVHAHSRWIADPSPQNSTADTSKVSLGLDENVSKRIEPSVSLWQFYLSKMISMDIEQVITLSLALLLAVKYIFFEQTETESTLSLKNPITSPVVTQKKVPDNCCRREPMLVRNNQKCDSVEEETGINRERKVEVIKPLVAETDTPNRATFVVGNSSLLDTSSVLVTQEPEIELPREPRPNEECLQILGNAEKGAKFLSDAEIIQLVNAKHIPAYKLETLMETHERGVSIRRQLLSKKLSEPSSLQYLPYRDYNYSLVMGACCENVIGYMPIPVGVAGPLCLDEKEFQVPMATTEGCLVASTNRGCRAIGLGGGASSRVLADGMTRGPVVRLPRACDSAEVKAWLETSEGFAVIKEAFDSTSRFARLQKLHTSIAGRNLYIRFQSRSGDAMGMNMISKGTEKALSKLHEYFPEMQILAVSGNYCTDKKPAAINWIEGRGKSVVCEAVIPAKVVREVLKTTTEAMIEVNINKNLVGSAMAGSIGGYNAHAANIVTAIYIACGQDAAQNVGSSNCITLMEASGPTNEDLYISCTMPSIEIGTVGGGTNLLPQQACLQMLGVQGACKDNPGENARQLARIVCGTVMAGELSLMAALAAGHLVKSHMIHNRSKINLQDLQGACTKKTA
Protocol: It was determined whether intermediates in cholesterol synthesis promote ubiquitination of reductase in a permeabilized cell system. […] The methyl and side chain hydroxyl groups of 27-hydroxylanosterol appear to act synergistically in promoting reductase ubiquitination.

[3] = tested on: human retinal pigment epithelial cells (ARPE19); assay type: cell-based
Description: We undertook to determine the effect of 27-hydroxylation of 7-ketocholesterol on the cytotoxic effect of 7-ketocholesterol. To test the general hypothesis that 27-hydroxylation of steroids markedly alters their biologic activity, the 27-hydroxy derivative of 7-ketocholesterol was synthesized from 27-hydrocholesterol using modifications of a previously published method (11). Its biologic effects on human retinal pigment epithelial cells (ARPE19) was compared to that of 7-ketocholesterol.
By contrast, retinal pigment epithelial cells maintained in the presence of 27-hydroxy-7-ketocholesterol had only a 10% reduction in viability compared to control.

LXRα = biological target: T3, LXRα (Homo sapiens, UniProt Q13133); details: cited from earlier work
T3 sequence (Q13133 1-447): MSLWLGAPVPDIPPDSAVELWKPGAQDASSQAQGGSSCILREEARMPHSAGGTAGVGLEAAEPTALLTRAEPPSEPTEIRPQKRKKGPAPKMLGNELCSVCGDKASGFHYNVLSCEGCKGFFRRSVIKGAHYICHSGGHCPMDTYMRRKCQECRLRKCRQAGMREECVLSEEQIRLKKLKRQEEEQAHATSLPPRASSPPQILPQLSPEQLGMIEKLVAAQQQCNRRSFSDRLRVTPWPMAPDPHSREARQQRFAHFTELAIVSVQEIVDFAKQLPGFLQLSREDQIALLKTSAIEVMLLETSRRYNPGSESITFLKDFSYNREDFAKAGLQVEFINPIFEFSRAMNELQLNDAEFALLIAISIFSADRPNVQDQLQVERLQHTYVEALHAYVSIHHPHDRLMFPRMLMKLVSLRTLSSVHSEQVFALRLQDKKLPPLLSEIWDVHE

LXRβ = biological target: T4, LXRβ (Homo sapiens, UniProt P55055); details: cited from earlier work
T4 sequence (P55055 1-460): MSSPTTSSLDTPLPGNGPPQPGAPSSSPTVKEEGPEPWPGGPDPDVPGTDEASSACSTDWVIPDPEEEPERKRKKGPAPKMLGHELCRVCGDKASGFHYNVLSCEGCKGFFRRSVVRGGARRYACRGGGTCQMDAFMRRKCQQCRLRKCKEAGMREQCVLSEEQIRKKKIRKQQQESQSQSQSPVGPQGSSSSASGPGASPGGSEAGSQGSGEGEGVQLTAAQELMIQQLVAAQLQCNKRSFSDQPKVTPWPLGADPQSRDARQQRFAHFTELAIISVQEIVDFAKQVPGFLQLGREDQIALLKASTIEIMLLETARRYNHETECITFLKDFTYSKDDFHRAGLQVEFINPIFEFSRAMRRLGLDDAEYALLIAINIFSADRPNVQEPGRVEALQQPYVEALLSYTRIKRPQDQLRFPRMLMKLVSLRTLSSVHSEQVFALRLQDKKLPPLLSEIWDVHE

[4] = Adrenodoxin reductase (−) control incubation, 20 min
[5] = Adrenodoxin reductase +, 20 min
[6] = disappearance of substrate at 20 min versus incubation without adrenodoxin reductase

T1 sequence (Q02318 34-531): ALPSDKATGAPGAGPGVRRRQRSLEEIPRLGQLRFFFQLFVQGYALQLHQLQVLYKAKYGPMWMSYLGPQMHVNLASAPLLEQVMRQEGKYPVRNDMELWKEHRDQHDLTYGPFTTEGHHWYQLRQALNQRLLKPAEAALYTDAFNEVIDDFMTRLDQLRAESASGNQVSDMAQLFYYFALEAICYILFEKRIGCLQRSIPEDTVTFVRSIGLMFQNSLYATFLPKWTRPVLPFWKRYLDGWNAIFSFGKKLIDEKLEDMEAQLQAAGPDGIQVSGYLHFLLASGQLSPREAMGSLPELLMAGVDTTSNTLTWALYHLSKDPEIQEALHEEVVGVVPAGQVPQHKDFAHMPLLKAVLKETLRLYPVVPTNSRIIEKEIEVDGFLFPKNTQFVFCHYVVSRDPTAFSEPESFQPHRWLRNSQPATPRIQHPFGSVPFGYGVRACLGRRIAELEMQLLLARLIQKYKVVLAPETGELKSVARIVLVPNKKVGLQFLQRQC

Row | SMILES | Synthesis rate of the 27-diol metabolite ([2]; 0-2.5 min) [ng/min] | Synthesis rate of the 27-diol metabolite ([2]; 2.5-5.0 min) [ng/min] | Synthesis rate of the 27-diol metabolite ([2]; 5.0-10 min) [ng/min] | Total 27-diol metabolite [2] [ng/10 min] | Stimulation of ubiquitination of reductase (HMG CoA reductase) | also measured
1 | CC(C)CCC[C@@H](C)[C@H]1CC[C@H]2C3=CC=C4C[C@@H](O)CC[C@]4(C)[C@H]3CC[C@]12C [7-Dehydrocholesterol] | 24 | 54 | 11 | 107 | – | Sterol/int std ratio [1, 4]: 0.95; Sterol/int std ratio [1, 5]: 0.65; Percent metabolized [1, 6]: 32%
2 | C[C@H](CCCC(C)(C)O)[C@H]1CC[C@H]2[C@@H]3C(=O)C=C4C[C@@H](O)CC[C@]4(C)[C@H]3CC[C@]12C [7-keto-25-hydroxycholesterol] | – | – | – | – | stimulated ubiquitination of reductase | –
3 | CC(C)CCC[C@@H](C)[C@H]1CC[C@H]2[C@@H]3C(=O)C=C4C[C@@H](O)CC[C@]4(C)[C@H]3CC[C@]12C [7-ketocholesterol] | – | – | – | – | – | Viability of retinal pigment epithelial cells ([3]; 25 μmolar): 68%; Viability of retinal pigment epithelial cells ([3]; 50 μmolar): 20%
4 | C[C@H](CCCC(C)(C)O)[C@H]1CC[C@H]2[C@@H]3CC=C4C[C@@H](O)CC[C@]4(C)[C@H]3CC[C@]12C [25-hydroxycholesterol] | – | – | – | – | stimulated ubiquitination of reductase | –
5 | CC(CO)CCC[C@@H](C)[C@H]1CC[C@H]2C3=CC=C4C[C@@H](O)CC[C@]4(C)[C@H]3CC[C@]12C (some centres unmarked) [27-hydroxy-7-dehydrocholesterol] | – | – | – | – | – | Expression of the nuclear receptor LXRα (LXRα): specifically upregulate
6 | CC(CO)CCC[C@@H](C)[C@H]1CC[C@H]2[C@@H]3CC=C4C[C@@H](O)CC[C@]4(C)[C@H]3CC[C@]12C (some centres unmarked) [27-hydroxycholesterol] | – | – | – | – | stimulated ubiquitination of reductase | Expression of the nuclear receptor LXRβ (LXRβ): upregulates; Expression of the nuclear receptor LXRα (LXRα): upregulates
7 | CC(=CCCC(C)C1CCC2(C)C3=C(CCC12C)C1(C)CCC(O)C(C)(C)C1CC3)CO (centres unmarked) [27-hydroxylanosterol] | – | – | – | – | strongly stimulated reductase ubiquitination | Concentration giving approximately equivalent levels of reductase ubiquitination as 25 μM lanosterol (HMG CoA reductase): 2.5 µM
8 | CC(C)CCC[C@@H](C)[C@H]1CC[C@H]2[C@@H]3CC=C4C[C@@H](O)CC[C@]4(C)[C@H]3CC[C@]12C [Cholesterol] | 80 | 75 | 53 | 534 | not | Percent metabolized ([1]; human, 20 min, 25 µM, pH 7.4): 22%
9 | CC(C)=CCC[C@@H](C)[C@H]1CC[C@H]2[C@@H]3CC=C4C[C@@H](O)CC[C@]4(C)[C@H]3CC[C@]12C [Desmosterol] | 3 | 8 | 9 | 85 | – | Sterol/int std ratio [1, 4]: 0.12; Sterol/int std ratio [1, 5]: 0.09; Percent metabolized [1, 6]: 25%; Substrate for the enzyme CYP 27A1 [2]: substrates for the enzyme
10 | CC(C)=CCC[C@@H](C)[C@H]1CC[C@@]2(C)C3=C(CC[C@]12C)[C@@]1(C)CC[C@H](O)C(C)(C)[C@@H]1CC3 [Lanosterol] | – | – | – | – | potently stimulate ubiquitination of reductase | Substrate for the enzyme CYP 27A1 [2]: substrates for the enzyme
11 | CC(C)=CCC[C@@H](C)[C@H]1CC[C@H]2C3=C(CC[C@]12C)[C@@]1(C)CC[C@H](O)C[C@@H]1CC3 [Zymosterol] | 9 | 14 | 10 | 97 | – | Substrate for the enzyme CYP 27A1 [2]: substrates for the enzyme
